Source: patent US10654837B2, “Sulphamoylaryl derivatives and use thereof as medicaments for the treatment of liver fibrosis” (Janssen Pharmaceutica NV, priority 2017, dated 2020)

Each compound was assayed against T1, 5HTR2B (Homo sapiens, UniProt P41595) (assay: 5HTR2B antagonist activity, calcium mobilization assay in human Maverick/293 cells (serotonin as agonist)). Conditions: intracellular calcium, emission 525 nm, read-out: Ca assay IC50.
T1 construct: host or cells: human Maverick/293 cells
T1 sequence (P41595 whole entry): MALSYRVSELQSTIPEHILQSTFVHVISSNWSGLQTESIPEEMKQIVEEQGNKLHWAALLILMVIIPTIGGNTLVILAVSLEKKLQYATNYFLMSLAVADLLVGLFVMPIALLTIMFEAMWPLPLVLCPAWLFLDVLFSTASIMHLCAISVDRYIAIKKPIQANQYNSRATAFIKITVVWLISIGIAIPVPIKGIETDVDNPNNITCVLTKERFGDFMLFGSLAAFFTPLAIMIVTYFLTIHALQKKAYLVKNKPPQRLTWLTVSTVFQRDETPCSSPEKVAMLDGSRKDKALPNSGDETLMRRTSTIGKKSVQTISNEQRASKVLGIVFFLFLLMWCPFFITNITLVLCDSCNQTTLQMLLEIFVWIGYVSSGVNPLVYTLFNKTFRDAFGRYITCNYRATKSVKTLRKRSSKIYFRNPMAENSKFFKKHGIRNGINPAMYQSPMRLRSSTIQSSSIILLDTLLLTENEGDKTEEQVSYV
Type: cell-based
Method in brief: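 Serum-starved (2 h) human Maverick/293 cells loaded with calcium dye for 50 min at 37 °C, then antagonist preincubated 15-30 min before serotonin challenge. Calcium fluorescence (ex 485/em 525 nm) recorded for 80 s; peak-based % inhibition fitted sigmoidally for IC50.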

Structure (SMILES) | IC50 [nM]
COc1ccc(S(=O)(=O)N[C@H]2CCOC2)cc1C(=O)Nc1cccc2c1cnn2C [Compound 110, (S)-2-Methoxy-N-(1-methyl-1H-indazol-4-yl)-5-(N-(tetrahydrofuran-3-yl)sulfamoyl)benzamide] | 10
COc1ccc(S(=O)(=O)N[C@H]2CCOC2)cc1C(=O)Nc1ccc(F)c(F)c1 [Compound 111, (S)—N-(3,4-Difluorophenyl)-2-methoxy-5-(N-(tetrahydrofuran-3-yl)sulfamoyl) benzamide] | 1.3
COc1ccc(S(=O)(=O)N[C@H]2CCOC2)cc1C(=O)Nc1ccc(F)c(Cl)c1 [Compound 112, (S)—N-(3-Chloro-4-fluorophenyl)-2-methoxy-5-(N-(tetrahydrofuran-3-yl)sulfamoyl)benzamide] | 2.9
COc1ccc(S(=O)(=O)N[C@H]2CCOC2)cc1C(=O)Nc1cccc(F)c1F [Compound 113, (S)—N-(2,3-Difluorophenyl)-2-methoxy-5-(N-(tetrahydrofuran-3-yl)sulfamoyl) benzamide] | 17
COc1ccc(S(=O)(=O)N[C@H]2CCOC2)cc1C(=O)Nc1ccc(Cl)cc1F [Compound 114, (S)—N-(4-Chloro-2-fluorophenyl)-2-methoxy-5-(N-(tetrahydrofuran-3-yl)sulfamoyl)benzamide] | 0.4
COc1ccc(S(=O)(=O)N[C@H]2CCOC2)cc1C(=O)Nc1ccc(Cl)c(F)c1 [Compound 115, (S)—N-(4-Chloro-3-fluorophenyl)-2-methoxy-5-(N-(tetrahydrofuran-3-yl)sulfamoyl)benzamide] | 0.8
COc1ccc(S(=O)(=O)N[C@H]2CCOC2)cc1C(=O)Nc1ccc(F)cn1 [Compound 116, (S)—N-(5-Fluoropyridin-2-yl)-2-methoxy-5-(N-(tetrahydrofuran-3-yl)sulfamoyl) benzamide] | 5.4
COc1ccc(S(=O)(=O)N[C@H]2CCOC2)cc1C(=O)Nc1ncc(F)cn1 [Compound 117, (S)—N-(5-Fluoropyrimidin-2-yl)-2-methoxy-5-(N-(tetrahydrofuran-3-yl)sulfamoyl)benzamide] | 64
COc1ccc(S(=O)(=O)N[C@H]2CCOC2)cc1C(=O)Nc1ncc(F)cc1F [Compound 118, (S)—N-(3,5-Difluoropyridin-2-yl)-2-methoxy-5-(N-(tetrahydrofuran-3-yl)sulfamoyl)benzamide] | 6.7
COc1ccc(S(=O)(=O)N[C@H]2CCOC2)cc1C(=O)Nc1ncc(F)cc1Cl [Compound 119] | 1.4
COc1ccc(S(=O)(=O)N[C@H]2CCOC2)cc1C(=O)Nc1ncc(Cl)cc1F [Compound 120, (S)—N-(5-Chloro-3-fluoropyridin-2-yl)-2-methoxy-5-(N-(tetrahydrofuran-3-yl)sulfamoyl)benzamide] | 50
COc1ccc(S(=O)(=O)N[C@H]2CCOC2)cc1C(=O)Nc1ncccc1Cl [Compound 121, (S)—N-(3-Chloropyridin-2-yl)-2-methoxy-5-(N-(tetrahydrofuran-3-yl)sulfamoyl) benzamide] | 3.8
COc1ccc(S(=O)(=O)N[C@H]2CCOC2)cc1C(=O)Nc1ccc(F)cc1 [Compound 122, (S)—N-(4-Fluorophenyl)-2-methoxy-5-(N-(tetrahydrofuran-3-yl)sulfamoyl) benzamide] | 0.6
COc1ccc(S(=O)(=O)N[C@H]2CCOC2)cc1C(=O)Nc1ccccc1Br [Compound 123, (S)—N-(2-Bromophenyl)-2-methoxy-5-(N-(tetrahydrofuran-3-yl)sulfamoyl) benzamide] | 0.2
COc1ccc(S(=O)(=O)N[C@H]2CCOC2)cc1C(=O)Nc1cccc(Br)c1 [Compound 124, (S)—N-(3-Bromophenyl)-2-methoxy-5-(N-(tetrahydrofuran-3-yl)sulfamoyl) benzamide] | 6.3
COc1ccc(S(=O)(=O)N[C@H]2CCOC2)cc1C(=O)Nc1ccc(Br)cc1 [Compound 125, (S)—N-(4-Bromophenyl)-2-methoxy-5-(N-(tetrahydrofuran-3-yl)sulfamoyl) benzamide] | 28
COc1ccc(S(=O)(=O)N[C@H]2CCOC2)cc1C(=O)Nc1cccc(Cl)c1 [Compound 126, (S)—N-(3-Chlorophenyl)-2-methoxy-5-(N-(tetrahydrofuran-3-yl)sulfamoyl) benzamide] | 12
COc1ccc(S(=O)(=O)N[C@H]2CCOC2)cc1C(=O)Nc1ccccc1Cl [Compound 127, (S)—N-(2-Chlorophenyl)-2-methoxy-5-(N-(tetrahydrofuran-3-yl)sulfamoyl) benzamide] | 0.1
COc1ccc(S(=O)(=O)N[C@H]2CCOC2)cc1C(=O)Nc1ccccc1OC(F)F [Compound 128, (S)—N-(2-(Difluoromethoxy)phenyl)-2-methoxy-5-(N-(tetrahydrofuran-3-yl)sulfamoyl)benzamide] | 1.2
COc1ccc(S(=O)(=O)N[C@H]2CCOC2)cc1C(=O)Nc1ccc(C)cc1 [Compound 129, (S)-2-Methoxy-5-(N-(tetrahydrofuran-3-yl)sulfamoyl)-N-(p-tolyl)benzamide] | 12

Structure (SMILES) | IC50 [nM]
COc1ccc(S(=O)(=O)N[C@H]2CCOC2)cc1C(=O)Nc1c(F)cccc1OC [Compound 130, (S)—N-(2-Fluoro-6-methoxyphenyl)-2-methoxy-5-(N-(tetrahydrofuran-3-yl)sulfamoyl)benzamide] | 2.1
COc1ccc(S(=O)(=O)N[C@H]2CCOC2)cc1C(=O)Nc1ccc(F)cc1C [Compound 131, (S)—N-(4-Fluoro-2-methylphenyl)-2-methoxy-5-(N-(tetrahydrofuran-3-yl)sulfamoyl)benzamide] | 1.3
COc1ccc(S(=O)(=O)N[C@H]2CCOC2)cc1C(=O)Nc1ncc(F)cc1C [Compound 132, (S)—N-(5-fluoro-3-methylpyridin-2-yl)-2-methoxy-5-(N-(tetrahydrofuran-3-yl)sulfamoyl)benzamide] | 163
COc1ccc(S(=O)(=O)N[C@H]2CCOC2)cc1C(=O)Nc1ncccc1C [Compound 133, (S)-2-Methoxy-N-(3-methylpyridin-2-yl)-5-(N-(tetrahydrofuran-3-yl)sulfamoyl) benzamide] | 405
COc1ccc(S(=O)(=O)N[C@H]2CCOC2)cc1C(=O)Nc1cccc(F)c1OC [Compound 134, (S)—N-(3-fluoro-2-methoxyphenyl)-2-methoxy-5-(N-(tetrahydrofuran-3-yl)sulfamoyl)benzamide] | 0.5
COc1cc(F)ccc1NC(=O)c1cc(S(=O)(=O)N[C@H]2CCOC2)ccc1OC [Compound 135, (S)—N-(4-fluoro-2-methoxyphenyl)-2-methoxy-5-(N-(tetrahydrofuran-3-yl)sulfamoyl)benzamide] | 0.1
CCOc1ccccc1NC(=O)c1cc(S(=O)(=O)N[C@H]2CCOC2)ccc1OC [Compound 136, (S)—N-(2-ethoxyphenyl)-2-methoxy-5-(N-(tetrahydrofuran-3-yl)sulfamoyl) benzamide] | 0.4
COc1ccc(S(=O)(=O)N[C@H]2C[C@H](O)C2)cc1C(=O)Nc1cc(C)ccc1Cl [Compound 137a, N-(2-chloro-5-methylphenyl)-5-(N-((trans)-3-hydroxycyclobutyl)sulfamoyl)-2-methoxybenzamide] | 17.1
COc1ccc(S(=O)(=O)N[C@H]2C[C@@H](O)C2)cc1C(=O)Nc1cc(C)ccc1Cl [Compound 137b, N-(2-Chloro-5-methylphenyl)-5-(N-((cis)-3-hydroxycyclobutyl)sulfamoyl)-2-methoxybenzamide] | 39
COc1ccc(S(=O)(=O)N[C@H]2C[C@H](O)C2)cc1C(=O)Nc1c(C)cccc1Cl [Compound 138a, N-(2-Chloro-6-methylphenyl)-5-(N-((trans)-3-hydroxycyclobutyl)sulfamoyl)-2-methoxybenzamide] | 159
COc1ccc(S(=O)(=O)N[C@H]2C[C@@H](O)C2)cc1C(=O)Nc1c(C)cccc1Cl [Compound 138b, N-(2-Chloro-6-methylphenyl)-5-(N-((cis)-3-hydroxycyclobutyl)sulfamoyl)-2-methoxybenzamide] | 329
COc1ccc(S(=O)(=O)N[C@H]2C[C@H](O)C2)cc1C(=O)Nc1cccc(C)c1Cl [Compound 140a, N-(2-Chloro-3-methylphenyl)-5-(N-((trans)-3-hydroxycyclobutyl)sulfamoyl)-2-methoxybenzamide] | 3.9
COc1ccc(S(=O)(=O)N[C@H]2C[C@@H](O)C2)cc1C(=O)Nc1cccc(C)c1Cl [Compound 140b, N-(2-Chloro-3-methylphenyl)-5-(N-((cis)-3-hydroxycyclobutyl)sulfamoyl)-2-methoxybenzamide] | 0.9
COc1ccc(S(=O)(=O)N[C@H]2C[C@@H](O)C2)cc1C(=O)Nc1ccc(F)c(C)n1 [Compound 141] | 2.8
COc1ccc(S(=O)(=O)N[C@H]2C[C@H](O)C2)cc1C(=O)Nc1ccc(F)c(C(F)F)c1 [Compound 142a, N-(3-(difluoromethyl)-4-fluorophenyl)-5-(N-((trans)-3-hydroxycyclobutyl)sulfamoyl)-2-methoxybenzamide] | 2.2
COc1ccc(S(=O)(=O)N[C@H]2C[C@@H](O)C2)cc1C(=O)Nc1ccc(F)c(C(F)F)c1 [Compound 142b, N-(3-(difluoromethyl)-4-fluorophenyl)-5-(N-((cis)-3-hydroxycyclobutyl)sulfamoyl)-2-methoxybenzamide] | 1.1
COc1ccc(S(=O)(=O)N[C@H]2C[C@H](O)C2)cc1C(=O)Nc1ccc(Cl)cc1F [Compound 143a, N-(4-chloro-2-fluorophenyl)-5-(N-((trans)-3-hydroxycyclobutyl)sulfamoyl)-2-methoxybenzamide] | 0.7
COc1ccc(S(=O)(=O)N[C@H]2C[C@@H](O)C2)cc1C(=O)Nc1ccc(Cl)cc1F [Compound 143b, N-(4-chloro-2-fluorophenyl)-5-(N-((cis)-3-hydroxycyclobutyl)sulfamoyl)-2-methoxybenzamide] | 5.9
COc1ccc(S(=O)(=O)N[C@H]2C[C@H](O)C2)cc1C(=O)Nc1ccc(F)cc1Cl [Compound 144a, N-(2-chloro-4-fluorophenyl)-5-(N-((trans)-3-hydroxycyclobutyl)sulfamoyl)-2-methoxybenzamide] | 0.5
